Assay results taken from publication PMC12463120, “Phenylalanine‐Based DNA‐Encoded Chemical Libraries for the Discovery of Potent and Selective Small Organic Ligands Against Markers of Cancer and Immune Cells” (Advanced Science, 2025).

Legend:
bovine CAII (bCAII) = bovine CAII (bCAII) (Bos taurus, UniProt P00921); experiment: Fluorescence polarization (FP) affinity against bCAII; assay type: binding
Procedure: (§1) Selection results were decoded with C++^[ [61] ^] and visualized using MATLAB R2019b (MathWorks). EFs were calculated by dividing the DNA sequence counts for each hit compound by the average DNA sequence count from the corresponding DEL screening. Additionally, Z‐score values were calculated following methods previously published,^[ [60] ^] as present in Supporting Information. Hit compounds with high EFs in the target protein selections and low EFs in the negative controls (anti‐target and streptavidin selections) were selected for hit validation activities. All compounds were synthesized using either solid‐phase peptide synthesis or solution‐phase methodologies. Affinities of fluorescein‐bearing hits were determined by FP or ELISA measurements. […] Binding kinetics were assessed on a Biacore X100 instrument with the target protein immobilized on a CM5 chip at 4′000 RUs. Cell binding of fluorescent ligands was evaluated using flow cytometry against antigen‐positive and antigen‐negative (wild‐type) cancer cells. in vitro tissue uptake of ^177Lu‐labelled DOTAGA PSMA‐radioligands was measured via autoradiography. […]
(§2) Protein dissolved in PBS or HEPES buffer was incubated for 30-60 min with 5 equiv. of EZ-LinkTM NHS-LC-Biotin (Thermo Fisher Scientific, #21336). […] The fractions were measured (absorption at 280 nm) on a Nanodrop 2000 Spectrophotometer to combine protein-containing fractions. […]

human CAIX (hCAIX) = biological target: T1, human CAIX (hCAIX) (Homo sapiens, UniProt Q16790); experiment: Fluorescence polarization (FP) affinity against hCAIX; assay type: binding; details: fluorescein derivatives
T1 construct: made in house; host or cells: CHO cells
Procedure: A dilution series of target proteins (i.e., PSMA, GCP3, CAIX, CAII) in the respective formulation buffer were separately prepared in a black 384-well plate (non-binding Greiner small volume plate). Test compounds functionalized with fluorescein were diluted to a concentration between 5 and 10 nM (5 μL) and incubated for 15 min with the protein (final volume corresponding to 10 µL). The fluorophore was excited at 485 nm, and anisotropy was measured at 535 nm on a Spectra Max Paradigm multimode plate reader (Tecan). The experiments were performed in triplicate. KD values measured using this FP method can differ from dissociation constants obtained by other physical methods (e.g., surface plasmon resonance, see section below).

[1] = test system: SK-RC-52 renal cell carcinoma cells; experiment: Flow cytometry on SK-RC-52 cells; assay type: cell-based; details: 100 nM
murine CAIX (mCAIX) = murine CAIX (mCAIX) (Mus musculus, UniProt Q8VHB5); experiment: Fluorescence polarization (FP) affinity against mCAIX; assay type: binding
Sequence of murine CAIX (mCAIX) (Q8VHB5 32-437): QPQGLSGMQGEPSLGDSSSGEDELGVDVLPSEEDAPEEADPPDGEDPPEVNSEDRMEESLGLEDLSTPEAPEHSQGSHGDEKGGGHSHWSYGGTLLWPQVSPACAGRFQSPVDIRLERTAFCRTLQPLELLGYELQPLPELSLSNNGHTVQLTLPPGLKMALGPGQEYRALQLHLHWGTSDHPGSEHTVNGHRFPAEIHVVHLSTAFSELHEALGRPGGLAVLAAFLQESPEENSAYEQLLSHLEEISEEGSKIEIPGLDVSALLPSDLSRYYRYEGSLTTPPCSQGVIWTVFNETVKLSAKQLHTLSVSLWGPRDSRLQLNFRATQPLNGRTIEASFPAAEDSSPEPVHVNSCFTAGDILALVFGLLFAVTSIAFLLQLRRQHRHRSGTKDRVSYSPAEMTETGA
Procedure: as §1, §2

recombinant human ACP3 = biological target: T2, recombinant human ACP3 (Homo sapiens, UniProt P15309); experiment: Fluorescence polarization (FP) affinity against human ACP3; assay type: binding; details: PSMA ligands as negative controls
T2 construct: made in house; host or cells: CHO cells
T2 sequence (P15309 33-386): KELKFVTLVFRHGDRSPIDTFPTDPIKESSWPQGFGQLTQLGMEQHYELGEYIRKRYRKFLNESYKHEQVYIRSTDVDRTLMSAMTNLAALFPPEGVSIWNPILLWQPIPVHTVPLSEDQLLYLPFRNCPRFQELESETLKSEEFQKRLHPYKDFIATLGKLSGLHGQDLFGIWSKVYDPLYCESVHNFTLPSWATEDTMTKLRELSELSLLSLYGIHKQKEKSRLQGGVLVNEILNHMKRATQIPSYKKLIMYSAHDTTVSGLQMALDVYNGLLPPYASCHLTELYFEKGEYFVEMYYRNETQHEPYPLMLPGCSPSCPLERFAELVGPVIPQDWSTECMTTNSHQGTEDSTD
Procedure: Selection results were decoded with C++^[ [61] ^] and visualized using MATLAB R2019b (MathWorks). EFs were calculated by dividing the DNA sequence counts for each hit compound by the average DNA sequence count from the corresponding DEL screening. Additionally, Z‐score values were calculated following methods previously published,^[ [60] ^] as present in Supporting Information. Hit compounds with high EFs in the target protein selections and low EFs in the negative controls (anti‐target and streptavidin selections) were selected for hit validation activities. All compounds were synthesized using either solid‐phase peptide synthesis or solution‐phase methodologies. Affinities of fluorescein‐bearing hits were determined by FP or ELISA measurements. […] ACP3 colorimetric inhibition assay was performed with serially diluted compounds at a fixed concentration (5 mM in PBS) of para‐nitrophenyl phosphate as substrate. Binding kinetics were assessed on a Biacore X100 instrument with the target protein immobilized on a CM5 chip at 4′000 RUs. Cell binding of fluorescent ligands was evaluated using flow cytometry against antigen‐positive and antigen‐negative (wild‐type) cancer cells. in vitro tissue uptake of ^177Lu‐labelled DOTAGA PSMA‐radioligands was measured via autoradiography. Prism 9 software (GraphPad Software) was used for data analysis of FP, ELISA, PD‐10, SPR, and enzymatic assay measurements. […]
(§3) The protein was then concentrated using Vivaspin® 20 centrifugal concentrators (30’000 Da molecular weight cutoff, Sartorius, #VS2012) and then purified by SEC or PD-10 column. The fractions were measured (absorption at 280 nm) on a Nanodrop 2000 Spectrophotometer to combine protein-containing fractions. […]
as §2
(§4) 2.11 Fluorescence polarization (FP) measurements with fluoresceine-labelled […]

PSMA [2] = biological target: T3, PSMA (Homo sapiens, UniProt Q04609); experiment: Fluorescence polarization (FP) affinity against PSMA; assay type: binding; details: fluoresceinated compounds
T3 construct: Avi-tag; made in house; host or cells: CHO cells
T3 sequence (Q04609 whole entry): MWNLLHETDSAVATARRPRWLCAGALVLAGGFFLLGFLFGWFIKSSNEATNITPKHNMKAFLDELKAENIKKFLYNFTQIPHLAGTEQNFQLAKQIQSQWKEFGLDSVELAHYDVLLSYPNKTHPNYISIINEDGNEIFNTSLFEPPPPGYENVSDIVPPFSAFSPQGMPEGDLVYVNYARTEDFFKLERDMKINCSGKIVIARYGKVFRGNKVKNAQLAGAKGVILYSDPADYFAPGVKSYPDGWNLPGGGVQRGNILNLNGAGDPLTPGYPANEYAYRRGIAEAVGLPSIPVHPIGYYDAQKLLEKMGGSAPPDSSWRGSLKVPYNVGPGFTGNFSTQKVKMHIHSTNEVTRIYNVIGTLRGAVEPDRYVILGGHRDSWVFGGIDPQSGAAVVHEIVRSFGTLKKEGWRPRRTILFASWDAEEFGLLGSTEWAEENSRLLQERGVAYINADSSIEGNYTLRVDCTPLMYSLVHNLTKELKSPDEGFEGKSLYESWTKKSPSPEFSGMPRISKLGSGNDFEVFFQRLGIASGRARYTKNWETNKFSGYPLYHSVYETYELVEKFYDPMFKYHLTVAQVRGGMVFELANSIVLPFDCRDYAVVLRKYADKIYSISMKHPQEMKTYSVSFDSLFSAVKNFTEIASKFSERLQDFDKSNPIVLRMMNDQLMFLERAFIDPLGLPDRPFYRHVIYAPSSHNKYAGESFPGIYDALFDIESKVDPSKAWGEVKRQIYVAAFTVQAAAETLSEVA
Procedure: Hits obtained from FM‐DEL1 (A1452 and A3113) and FM‐DEL2 (A3113/B423) were re‐synthesized as stereo‐chemically pure off‐DNA compounds derivatized with a C6 linker featuring a fluorescein moiety (coupled to fluorescein isothiocyanate‐FITC) (compounds 1–6) [Figure 2E]. The binding affinity against PSMA and GCP3 (KD) of fluoresceinated compounds 1–6 was measured by fluorescence polarization (FP). […] The superiority of compound 5 (S‐configuration) in binding PSMA over compound 6 (R‐configuration) was confirmed by molecular docking studies [Figure S48, Supporting Information]. […] The presence of the sole building block A3113 on the 3‐iodo‐phenylalanine scaffold in the S‐configuration gives adequate selectivity for PSMA over GCP3. The addition of the second building block (B423) enhances both affinity and selectivity for the target.
as §1, with “Hit compounds with high EFs in the target protein selections and low EFs in the negative controls (anti‐target and streptavidin selections) were selected for hit validation activities. All compounds were synthesized using either solid‐phase peptide synthesis or solution‐phase methodologies.” left out
as §3, §4

[3] = test system: HT-1080.hPSMA tumor cells; experiment: Flow cytometry on HT-1080.hPSMA cells; assay type: cell-based; details: 250 nM
Procedure: Selection results were decoded with C++^[ [61] ^] and visualized using MATLAB R2019b (MathWorks). EFs were calculated by dividing the DNA sequence counts for each hit compound by the average DNA sequence count from the corresponding DEL screening. Additionally, Z‐score values were calculated following methods previously published,^[ [60] ^] as present in Supporting Information. Hit compounds with high EFs in the target protein selections and low EFs in the negative controls (anti‐target and streptavidin selections) were selected for hit validation activities. All compounds were synthesized using either solid‐phase peptide synthesis or solution‐phase methodologies. Affinities of fluorescein‐bearing hits were determined by FP or ELISA measurements. […] ACP3 colorimetric inhibition assay was performed with serially diluted compounds at a fixed concentration (5 mM in PBS) of para‐nitrophenyl phosphate as substrate. Binding kinetics were assessed on a Biacore X100 instrument with the target protein immobilized on a CM5 chip at 4′000 RUs. Cell binding of fluorescent ligands was evaluated using flow cytometry against antigen‐positive and antigen‐negative (wild‐type) cancer cells. in vitro tissue uptake of ^177Lu‐labelled DOTAGA PSMA‐radioligands was measured via autoradiography. Prism 9 software (GraphPad Software) was used for data analysis of FP, ELISA, PD‐10, SPR, and enzymatic assay measurements. SPR sensograms were fitted with the Biacore X100 Evaluation Software. Flow cytometry data was processed with the FlowJo 10.4 software.
HT1080.hPSMA and PC3.hACP3 cell lines were generated by lentiviral transduction on wild type cells (HT1080.wt and PC3.wt), according to published procedures9. […]
Cancer cells were detached with an Accutase® cell detachment solution, resuspended in a standard culture medium, and transferred to falcon tubes. Cells were counted and centrifuged at 400 rcf for 3 min. […] Data were acquired halting the measurement at 10´ 000 events on a Cytoflex S flow cytometer (Beckman Coulter), and analyzed using the FlowJo software v10 (BD Biosciences). […]

PSMA [4] = biological target: T3, PSMA; experiment: Size-exclusion chromatography co-elution with PSMA; assay type: binding; details: recombinant PSMA vs GCP3
Procedure: as §1, §2

Sequence of bovine CAII (bCAII) (P00921 whole entry): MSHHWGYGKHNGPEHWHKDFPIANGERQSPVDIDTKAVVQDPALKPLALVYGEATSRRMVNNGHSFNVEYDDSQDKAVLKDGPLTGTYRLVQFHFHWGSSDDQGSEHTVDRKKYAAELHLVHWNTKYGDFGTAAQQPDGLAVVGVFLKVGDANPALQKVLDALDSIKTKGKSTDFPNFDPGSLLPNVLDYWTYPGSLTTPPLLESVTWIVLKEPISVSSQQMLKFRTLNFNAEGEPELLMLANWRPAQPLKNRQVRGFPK

Kd (bovine CAII (bCAII)) [nM] | Kd (human CAIX (hCAIX)) [nM] | Kd (murine CAIX (mCAIX)) [nM] | binding to human ACP3 by FP (recombinant human ACP3) | Kd (PSMA [2]) [nM] | Compound | binding to CAIX on the cell surface by flow cytometry [1] | binding to PSMA on the cell surface by flow cytometry [3] | co-elution with PSMA in size-exclusion chromatography (PSMA [4])
150 | 0.95 | 8.73 |  |  | NS(=O)(=O)c1ccc(-c2cccc(C[C@@H](NC(=O)CCC(=O)N[C@@H](CCCCNC(=S)Nc3ccc4c(c3)C(=O)OC43c4ccc(O)cc4Oc4cc(O)ccc43)C(=O)O)C(=O)NCC3(c4cccs4)CCOCC3)c2)cc1 [compound 21] | bound to the antigen expressed on the surface of cancer cells |  | 
 |  |  | did not bind | 13 | CCOc1ccccc1-c1cccc(C[C@H](NC(=O)N[C@@H](CCC(=O)O)C(=O)O)C(=O)NCCCCCCNC(=S)Nc2ccc3c(c2)C(=O)OC32c3ccc(O)cc3Oc3cc(O)ccc32)c1 [compound 5] |  | able to bind to the antigen expressed on the tumor cell surface | selective and kinetically stable interaction with PSMA
